From PubChem BioAssay (NCI)
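All cell lines were grown in 96-well plates and treated with compound for 48 hours. Abbreviation: GI50, concentration required for 50% inhibition of growth. TGI: total growth inhibition.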

How the values were obtained:
Test in all cases: inhibition of tumour cell growth, NCI panel, 48 h
UO-31 renal = tested on: UO-31 renal
ACHN renal = tested on: ACHN renal
NCI/ADR-RES ovarian = tested on: NCI/ADR-RES ovarian
SW-620 colon = tested on: SW-620 colon
NCI-H226 lung = tested on: NCI-H226 lung
NCI-H23 lung = tested on: NCI-H23 lung
SR leukemia = tested on: SR leukemia
RXF 393 renal = tested on: RXF 393 renal
NCI-H460 lung = tested on: NCI-H460 lung
IGROV1 ovarian = tested on: IGROV1 ovarian
KM12 colon = tested on: KM12 colon
BT-549 breast = tested on: BT-549 breast
SNB-19 CNS = tested on: SNB-19 CNS
COLO 205 colon = tested on: COLO 205 colon
UACC-62 melanoma = tested on: UACC-62 melanoma
RPMI-8226 leukemia = tested on: RPMI-8226 leukemia
HOP-62 NSCLC = tested on: HOP-62 NSCLC
NCI-H522 lung = tested on: NCI-H522 lung
MALME-3M melanoma = tested on: MALME-3M melanoma
SK-OV-3 ovarian = tested on: SK-OV-3 ovarian
U251 CNS = tested on: U251 CNS
K-562 leukemia = tested on: K-562 leukemia
MDA-MB-435 = tested on: MDA-MB-435
T-47D breast = tested on: T-47D breast
TK-10 renal = tested on: TK-10 renal
OVCAR-3 ovarian = tested on: OVCAR-3 ovarian
PC-3 prostate = tested on: PC-3 prostate
SK-MEL-2 melanoma = tested on: SK-MEL-2 melanoma
SNB-75 CNS = tested on: SNB-75 CNS

**Q.** With `O=C(NC1CCC(Br)CC1)C1CCCC(S(=O)(=O)NC2CCCCC2)C1` (stereo not drawn) as the compound, how does the GI50 (UO-31 renal) read?
**A.** The GI50 was 6.26 µM.

**Q.** And the TGI (UO-31 renal)?
**A.** The TGI was 33.1 µM.

**Q.** What about the GI50 (ACHN renal) of the same compound?
**A.** Its GI50 is 9.9 µM.

**Q.** What about the TGI (ACHN renal) of the same compound?
**A.** Its TGI is 39.4 µM.

**Q.** What about the GI50 (NCI/ADR-RES ovarian) of the same compound?
**A.** The GI50 was 8.36 µM.

**Q.** What about the TGI (NCI/ADR-RES ovarian) of the same compound?
**A.** The TGI was 37.7 µM.

**Q.** What about the GI50 (SW-620 colon) of the same compound?
**A.** Its GI50 is 13.9 µM.

**Q.** And the TGI (SW-620 colon)?
**A.** Its TGI is 53.7 µM.

**Q.** And the GI50 (NCI-H226 lung)?
**A.** The GI50 was 12 µM.

**Q.** What about the TGI (NCI-H226 lung) of the same compound?
**A.** Its TGI is 109 µM.

**Q.** What about the GI50 (NCI-H23 lung) of the same compound?
**A.** Its GI50 is 7.88 µM.

**Q.** And the TGI (NCI-H23 lung)?
**A.** The TGI was 35.3 µM.

**Q.** What about the GI50 (SR leukemia) of the same compound?
**A.** Its GI50 is 18.8 µM.

**Q.** And the TGI (SR leukemia)?
**A.** Its TGI is 129 µM.

**Q.** What about the GI50 (RXF 393 renal) of the same compound?
**A.** Its GI50 is 11.8 µM.

**Q.** What about the TGI (RXF 393 renal) of the same compound?
**A.** Its TGI is 48.1 µM.

**Q.** What about the GI50 (NCI-H460 lung) of the same compound?
**A.** The GI50 was 11.4 µM.

**Q.** And the TGI (NCI-H460 lung)?
**A.** The TGI was 48 µM.

**Q.** And the GI50 (IGROV1 ovarian)?
**A.** The GI50 was 9.78 µM.

**Q.** What about the TGI (IGROV1 ovarian) of the same compound?
**A.** Its TGI is 46 µM.

**Q.** What about the GI50 (KM12 colon) of the same compound?
**A.** The GI50 was 13.3 µM.

**Q.** What about the TGI (KM12 colon) of the same compound?
**A.** The TGI was 47.8 µM.

**Q.** And the GI50 (BT-549 breast)?
**A.** Its GI50 is 8.34 µM.

**Q.** And the TGI (BT-549 breast)?
**A.** Its TGI is 35.4 µM.

**Q.** What about the GI50 (SNB-19 CNS) of the same compound?
**A.** Its GI50 is 11.1 µM.

**Q.** And the TGI (SNB-19 CNS)?
**A.** The TGI was 42.7 µM.

**Q.** And the GI50 (COLO 205 colon)?
**A.** Its GI50 is 14 µM.

**Q.** What about the TGI (COLO 205 colon) of the same compound?
**A.** Its TGI is 51.5 µM.

**Q.** And the GI50 (UACC-62 melanoma)?
**A.** Its GI50 is 7.38 µM.

**Q.** And the TGI (UACC-62 melanoma)?
**A.** Its TGI is 35.3 µM.

**Q.** What about the GI50 (RPMI-8226 leukemia) of the same compound?
**A.** Its GI50 is 9.79 µM.

**Q.** What about the TGI (RPMI-8226 leukemia) of the same compound?
**A.** The TGI was 58 µM.

**Q.** What about the GI50 (HOP-62 NSCLC) of the same compound?
**A.** The GI50 was 24 µM.

**Q.** What about the TGI (HOP-62 NSCLC) of the same compound?
**A.** The TGI was 59.8 µM.

**Q.** And the GI50 (NCI-H522 lung)?
**A.** The GI50 was 8 µM.

**Q.** What about the TGI (NCI-H522 lung) of the same compound?
**A.** Its TGI is 38.1 µM.

**Q.** What about the GI50 (MALME-3M melanoma) of the same compound?
**A.** Its GI50 is 6.47 µM.

**Q.** What about the TGI (MALME-3M melanoma) of the same compound?
**A.** The TGI was 39.3 µM.

**Q.** And the GI50 (SK-OV-3 ovarian)?
**A.** Its GI50 is 14.1 µM.

**Q.** What about the TGI (SK-OV-3 ovarian) of the same compound?
**A.** The TGI was 47.3 µM.

**Q.** What about the GI50 (U251 CNS) of the same compound?
**A.** Its GI50 is 10.9 µM.

**Q.** What about the TGI (U251 CNS) of the same compound?
**A.** Its TGI is 43 µM.

**Q.** And the GI50 (K-562 leukemia)?
**A.** Its GI50 is 7.52 µM.

**Q.** And the TGI (K-562 leukemia)?
**A.** Its TGI is 250 µM.

**Q.** And the GI50 (MDA-MB-435)?
**A.** Its GI50 is 10.6 µM.

**Q.** What about the TGI (MDA-MB-435) of the same compound?
**A.** Its TGI is 42.3 µM.

**Q.** And the GI50 (T-47D breast)?
**A.** The GI50 was 6.05 µM.

**Q.** And the TGI (T-47D breast)?
**A.** Its TGI is 37 µM.

**Q.** And the GI50 (TK-10 renal)?
**A.** Its GI50 is 15 µM.

**Q.** What about the TGI (TK-10 renal) of the same compound?
**A.** The TGI was 49.9 µM.

**Q.** And the GI50 (OVCAR-3 ovarian)?
**A.** The GI50 was 9.83 µM.

**Q.** And the TGI (OVCAR-3 ovarian)?
**A.** Its TGI is 40 µM.

**Q.** And the GI50 (PC-3 prostate)?
**A.** The GI50 was 8.47 µM.

**Q.** What about the TGI (PC-3 prostate) of the same compound?
**A.** Its TGI is 37.1 µM.

**Q.** What about the GI50 (SK-MEL-2 melanoma) of the same compound?
**A.** The GI50 was 11.5 µM.

**Q.** And the TGI (SK-MEL-2 melanoma)?
**A.** Its TGI is 46.4 µM.

**Q.** And the GI50 (SNB-75 CNS)?
**A.** Its GI50 is 17 µM.

**Q.** And the TGI (SNB-75 CNS)?
**A.** The TGI was 69.5 µM.
